No end group written: not given here.
B1: Dishevelled PDZ domain (Dvl1) PDZ (protein)
chain: NIITVTLNMERHHFLGISIVGQSNDRGDGGIYIGSIMKGGAVAADGRIEPGDMLLQVNDVNFENMSNDDAVRVLREIVS

Experiments:
[1] = molecular target: T1, Dvl PDZ domain (Dvl1 PDZ) (Mus musculus, UniProt P51141); test: fluorescence polarization competition with Rox-DprC peptide; format: binding
T1 sequence (P51141 248-337): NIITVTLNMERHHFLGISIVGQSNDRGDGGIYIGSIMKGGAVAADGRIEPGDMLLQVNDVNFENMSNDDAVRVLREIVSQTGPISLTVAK

[2] = molecular target: T1, Dvl PDZ domain (Dvl1 PDZ); test: binding test shown only in supplement
[3] = molecular target: T2, Dapper C-terminal peptide (Rox-DprC) (Xenopus laevis); test: fluorescence polarization
T2 chain: Rox-SGSLKLMTTV

Molecule	Ki [1] [µM]	further results
CC1=C(CC(=O)O)c2cc(F)ccc2/C1=C\c1ccc([S@@+](C)[O-])cc1 [sulindac]	10.7 ± 1.2	
CSc1ccc(/C=C2/C(C)=C(CC(=O)O)c3cc(F)ccc32)cc1 [sulindac sulfide]		binding test shown only in supplement [2]: binds to the PDZ domain with much weaker affinity (Figure S6)
CC1=C(CC(=O)O)c2cc(F)ccc2/C1=C\c1ccc(S(C)(=O)=O)cc1 [sulindac sulfone]	8 ± 0.2	
B1		Kd [3]: ~8 µM

Reference: publication PMC2978498 (Angewandte Chemie (International ed. in English), 2009)
